This note sets out measurements from ChEMBL document CHEMBL4257573, “Synthesis, modification, and cytotoxic evaluation of 2,3-secotriterpenic β-ketoesters” (Bioorg Med Chem Lett, 2018).

The subject of one data set is HEp-2. Nature of the data set: Cytotoxicity against human Hep2 cells assessed as reduction in cell viability after 72 hrs by MTT assay. The format is functional, cell-based. To be noted: HEp-2, 72 h. In general terms: Tetrazolium assays rely on reduction of a dye to a coloured formazan, in cell work by metabolically active cells.
The test system of a further data set is HCT-116. Nature of the data set: Cytotoxicity against human HCT116 cells assessed as reduction in cell viability after 72 hrs by MTT assay. The format is functional, cell-based. Conditions: HCT-116, 72 h.
The nature of data set [1]: Cytotoxicity against human MS cells assessed as reduction in cell viability after 72 hrs by MTT assay. The format is functional, cell-based.
The subject of another data set is RD. Nature of the data set: Cytotoxicity against human RD cells assessed as reduction in cell viability after 72 hrs by MTT assay. The class given is functional, cell-based.
Another data set relates to A549. As to the kind of experiment: Cytotoxicity against human A549 cells assessed as reduction in cell viability after 72 hrs by MTT assay. The format is functional, cell-based. Conditions: A549, 72 h.
The next data set deals with MCF7. Nature of the data set: Cytotoxicity against human MCF7 cells assessed as reduction in cell viability after 72 hrs by MTT assay. Conditions: MCF7, 72 h. The format is functional, cell-based.
The next data set concerns HEK293. Nature of the data set: Cytotoxicity against HEK293 cells assessed as reduction in cell viability after 72 hrs by MTT assay. Conditions: Homo sapiens, HEK293, 72 h. The class given is cell-based.
A short description of data set [2]: Selectivity index, ratio of IC50 for HEK293 cells to IC50 for human Hep2 cells. To be noted: HEK293 cells versus Hep2 cells, read-out: Ratio IC50. The class given is toxicity.
Data set [3] in a line: Selectivity index, ratio of IC50 for HEK293 cells to IC50 for human MS cells. The format is toxicity. Conditions: HEK293 cells versus MS cells, read-out: Ratio IC50.
The nature of data set [4]: Selectivity index, ratio of IC50 for HEK293 cells to IC50 for human MCF7 cells. The format is toxicity. Conditions: HEK293 cells versus MCF7 cells, read-out: Ratio IC50.

The term IC50 denotes the point on the concentration scale where inhibition reaches its midpoint. Take `CC1(C)CC[C@]23CC[C@]4(C)[C@H](CC[C@@H]5[C@@](C)(CC#N)[C@H](C(C)(C)C(=O)COC(=O)/C=C/c6ccccc6)CC[C@]54C)[C@H]2[C@H]1OC3`: the IC50 in the data set on HEp-2 was over 100 µM; in the data set with HCT-116 it was 28.5 µM; in data set [1] it was over 100 µM; in the data set on RD it was 44.3 µM; in the data set on A549, over 100 µM; with MCF7, over 100 µM.

For `C=C(C=O)[C@@H]1CC[C@]2(C(=O)OC)CC[C@]3(C)[C@H](CC[C@@H]4[C@@](C)(CC#N)[C@H](C(C)(C)C(=O)COC(=O)c5cccnc5)CC[C@]43C)[C@@H]12`, the IC50 with HEp-2 was 29.5 µM; in the data set with HCT-116, 7.03 µM; in [1], 8.27 µM; in the data set on RD, 8.98 µM; in the data set on A549, 40.3 µM; in the data set on MCF7 it was 35 µM. In addition, in the data set on HEK293, the IC50 was 59.4 µM. Further, the selectivity ratio in data set [2], in [3] and in data set [4] was 1.47 to 8.45 throughout.

With `C=C(CO)[C@@H]1CC[C@]2(C(=O)OC)CC[C@]3(C)[C@H](CC[C@@H]4[C@@](C)(CC#N)[C@H](C(C)(C)C(=O)COC(C)=O)CC[C@]43C)[C@@H]12`, the IC50 is 81.2 µM with HEp-2; 43.7 µM with HCT-116; 24 µM in data set [1]; 33.4 µM in the data set with RD; 50.7 µM in the data set on A549; 10.3 µM with MCF7.

For the molecule `C=C(C=O)[C@@H]1CC[C@]2(C(=O)OC)CC[C@]3(C)[C@H](CC[C@@H]4[C@@](C)(CC#N)[C@H](C(C)(C)C(=O)COC(=O)/C=C/c5ccccc5)CC[C@]43C)[C@@H]12`, the concentration for half-maximal inhibition (IC50) in the data set on HEp-2 was 84.8 µM; in the data set with HCT-116, 13.2 µM; in data set [1], 22 µM; in the data set on RD, 3.65 µM; in the data set on A549, over 100 µM; with MCF7 it was 8.54 µM. The 50% inhibitory concentration (IC50) in the data set on HEK293 amounted to 184 µM. Moreover, the selectivity ratio in data set [2], in data set [3] and in data set [4] was 1.84 to 50.3 each time.

Regarding `CC1(C)CC[C@]23CC[C@]4(C)[C@H](CC[C@@H]5[C@@](C)(CC#N)[C@H](C(C)(C)C(O)CO)CC[C@]54C)[C@H]2[C@H]1OC3` (some centres not stated), the concentration for half-maximal inhibition (IC50) was over 100 µM in the data set with HEp-2; 81.9 µM in the data set on HCT-116; 38 µM in [1]; over 100 µM with RD; over 100 µM with A549; 59.8 µM in the data set on MCF7.

Turning to `CC1(C)CC[C@]23CC[C@]4(C)[C@H](CC[C@@H]5[C@]6(C)[C@@H](CC[C@]54C)C(C)(C)[C@@](O)(CO)[C@H]6C#N)[C@H]2[C@H]1OC3`, the IC50 (with HEp-2; in the data set with HCT-116; in data set [1]; with RD; in the data set with A549; with MCF7) was over 100 µM each time.

Consider `CC1(C)CC[C@]23CC[C@]4(C)[C@H](CC[C@@H]5[C@@](C)(CC#N)[C@H](C(C)(C)C(=O)COC=O)CC[C@]54C)[C@H]2[C@H]1OC3`, for which the IC50 (with HEp-2; in the data set on HCT-116; in [1]; in the data set with RD; in the data set with A549; in the data set on MCF7) was over 100 µM throughout.

Turning to `C=C(C=O)[C@@H]1CC[C@]2(C(=O)OC)CC[C@]3(C)[C@H](CC[C@@H]4[C@@](C)(CC#N)[C@H](C(C)(C)C(=O)COC(=O)c5ccccc5OC(C)=O)CC[C@]43C)[C@@H]12`, the concentration for half-maximal inhibition (IC50) was 36.2 µM with HEp-2; 4.91 µM in the data set on HCT-116; 12.8 µM in data set [1]; 4.81 µM with RD; 22.8 µM in the data set on A549; over 100 µM in the data set on MCF7. Besides, the IC50 in the data set with HEK293 came to 108 µM. For the same molecule, the selectivity ratio in [2], in [3] and in [4] was 1.08 to 22.5 throughout.

Turning to `CC1(C)CC[C@]23CC[C@]4(C)[C@H](CC[C@@H]5[C@@](C)(CC#N)[C@H](C(C)(C)C(=O)COC(=O)c6cccnc6)CC[C@]54C)[C@H]2[C@H]1OC3`, the IC50 (in the data set on HEp-2; in the data set with HCT-116; in data set [1]; with RD; with A549; in the data set with MCF7) was over 100 µM in each case.

As for `C=C(C=O)[C@@H]1CC[C@]2(C(=O)OC)CC[C@]3(C)[C@H](CC[C@@H]4[C@@](C)(CC#N)[C@H](C(C)(C)C(=O)COC=O)CC[C@]43C)[C@@H]12`, the IC50 in the data set with HEp-2 is 78.9 µM; in the data set on HCT-116 it was 79.8 µM; in data set [1], 49.1 µM; in the data set on RD it was 49.4 µM; in the data set with A549, over 100 µM; with MCF7, 30 µM.

Turning to `C=C(CO)[C@@H]1CC[C@]2(C(=O)OC)CC[C@]3(C)[C@H](CC[C@@H]4[C@@](C)(CC#N)[C@H](C(C)(C)C(O)CO)CC[C@]43C)[C@@H]12` (some centres not stated), the IC50 in the data set on HEp-2 was over 100 µM; with HCT-116, over 100 µM; in [1], over 100 µM; in the data set with RD, 72.4 µM; in the data set with A549, over 100 µM; with MCF7 it was over 100 µM.

As for `CC1(C)CC[C@]23CC[C@]4(C)[C@H](CC[C@@H]5[C@@](C)(CC#N)[C@H](C(C)(C)C(=O)COC(=O)CC(=O)CC(=O)O)CC[C@]54C)[C@H]2[C@H]1OC3`, the IC50 with HEp-2 was over 100 µM; with HCT-116, over 100 µM; in data set [1], 87.5 µM; in the data set with RD it was 50.1 µM; with A549, 69.5 µM; with MCF7, over 100 µM.

Turning to `CC1(C)CC[C@]23CC[C@]4(C)[C@H](CC[C@@H]5[C@@](C)(CC#N)[C@H](C(C)(C)C(=O)CO)CC[C@]54C)[C@H]2[C@H]1OC3`, the IC50 (in the data set with HEp-2; in the data set on HCT-116; in data set [1]; with RD; in the data set on A549; in the data set on MCF7) was over 100 µM each time.

Take `CC1(C)CC[C@]23CC[C@]4(C)[C@H](CC[C@@H]5[C@@](C)(CC#N)[C@H](C(C)(C)C(=O)COC(=O)CCC(=O)O)CC[C@]54C)[C@H]2[C@H]1OC3`: the IC50 (with HEp-2; in the data set with HCT-116; in data set [1]; with RD; with A549; in the data set on MCF7) was over 100 µM each time.

As for `CC(C)(CC(=O)OCC(=O)C(C)(C)[C@@H]1CC[C@]2(C)[C@H](CC[C@@H]3[C@H]4[C@H]5OC[C@@]4(CCC5(C)C)CC[C@]32C)[C@@]1(C)CC#N)C(=O)O`, the half-maximal inhibitory concentration (IC50) (with HEp-2; with HCT-116; in data set [1]; in the data set on RD; in the data set on A549; in the data set on MCF7) was over 100 µM throughout.

As for `CC1(C)CC[C@]23CC[C@]4(C)[C@H](CC[C@@H]5[C@@](C)(CC#N)[C@H](C(C)(C)C(=O)C(Cl)Cl)CC[C@]54C)[C@H]2[C@H]1OC3`, the IC50 is over 100 µM with HEp-2; 13.2 µM in the data set on HCT-116; 24.7 µM in data set [1]; 11.3 µM with RD; 35.2 µM in the data set with A549; 10.8 µM in the data set on MCF7.

For the molecule `CC(=O)Oc1ccccc1C(=O)OCC(=O)C(C)(C)[C@@H]1CC[C@]2(C)[C@H](CC[C@@H]3[C@H]4[C@H]5OC[C@@]4(CCC5(C)C)CC[C@]32C)[C@@]1(C)CC#N`, the concentration for half-maximal inhibition (IC50) (with HEp-2; with HCT-116; in [1]; in the data set with RD; in the data set on A549; in the data set on MCF7) was over 100 µM throughout.

As to `CC1(C)CC[C@]23CC[C@]4(C)[C@H](CC[C@@H]5[C@@](C)(CC#N)[C@H](C(C)(C)C(=O)[C@@H](Cl)Br)CC[C@]54C)[C@H]2[C@H]1OC3`, the IC50 was over 100 µM in the data set on HEp-2; 13.2 µM in the data set on HCT-116; 24.7 µM in data set [1]; 11.3 µM with RD; 35.2 µM in the data set on A549; 10.8 µM with MCF7.

For the molecule `CC1(C)CC[C@]23CC[C@]4(C)[C@H](CC[C@@H]5[C@@](C)(CC#N)[C@H](C(C)(C)C(=O)COC(=O)CCCCCCCCC(=O)O)CC[C@]54C)[C@H]2[C@H]1OC3`, the IC50 (in the data set on HEp-2; with HCT-116; in data set [1]; in the data set on RD; in the data set on A549; in the data set on MCF7) was over 100 µM each time.

`CC(=O)OCC(=O)C(C)(C)[C@@H]1CC[C@]2(C)[C@H](CC[C@@H]3[C@H]4[C@H]5OC[C@@]4(CCC5(C)C)CC[C@]32C)[C@@]1(C)CC#N`: the IC50 (with HEp-2; in the data set with HCT-116; in [1]; in the data set with RD; in the data set with A549; with MCF7) was over 100 µM throughout.
